“And” between values parts separate entries of the source, which are not always exact repeats. Equal values may be shown once. “Also recorded” adds a separate entry of the source. Read-outs that look alike come from different tables or passages of the source.
Experiments:
human M-5 melanoma cells = assay: Initial rate of cell proliferation (IRCP), M-5 cells; type: cell-based
Experimental: The study was conducted on two continuous cell cultures growing in the form of a monolayer in a tissue culture (on murine B-16 melanoma cells and human M-5 melanoma cells). […] Dicarbamine (D) was transferred into stock solution (1.000 μM), sterilized through filters with 0.22 μm pore diameter and then diluted to concentrations 0.01 and 1.0 μM.
The effect of preparations on cells was assessed on the basis of initial rate of cell proliferation (IRCP). This index (IRCP), which is usually called colony rate growth, was determined by numbering the number of cells in micro colonies during the first days following affection in “test” (with preparations) and “control” (without preparations) dishes, by analyzing 50 colonies in each of them. Each “point” included […] three Petri dishes with growing cell colonies in adding specific concentrations of preparations under study. Growth rate of colonies (in %) was calculated according to the formula: […]
Cell numbers in micro colonies were calculated for every “point”. Toxicity of preparations in the selected range of concentrations was judged by cell survival, which was determined by the ratio between numbers of the colonies grown in “test” and “control” dishes.

Friend erythroblastosis = assay: Friend erythroblastosis, electronic microscopy of cell types; type: in vivo, mice
Experimental: Friend erythroblastosis which was inoculated subcutaneously to DBA2 female mice via spleen cells was investigated.
Group 2—Reaferon at dose 100 thousand IU/kg was administered daily s.c. from day 3 to day 7 after inoculation;
Group 3—Dicarbamine at a single dose 4.5 mg/kg was administered p.o. from day 3 to day 7 after inoculation;
Group 4—Dicarbamine and Reaferon were administered simultaneously according to a similar scheme.
Material for light microscopy was taken from sacrificed animals at days 3, 7 and 14 after termination of therapy or administration of a physiological saline. Material for electronic microscopy was taken at days 7 and 14.
For electronic microscopy, tumor pieces were fixed in a 2.5% glutaraldehyde solution and 1% osmium tetroxide and embedded in EPON-812. Semi-thin and ultra-thin slices were prepared on the LKB-III ultratome (Sweden). The obtained semi-thin slices were stained with Toluidine blue and examined through the light microscope. Ultra-thin slices were additionally stained with uranyl acetate and lead citrate; the slices examined and photographed in the JEOL 1200 EX-II electronic microscope (Japan).
The percentage of cells with different types of differentiation (blast cells, lymphocytes and granular leukocytes) was calculated during electronic microscopy for quantitative assessment.

[1] = Complete blood analysis of individual ovarian cancer patients; type: in vivo, human; conditions: for Platelets: in 10^9/L (unit assumed)
Experimental: The effect of Dicarbamine was studied in 13 patients with stage III-IV ovarian cancer who underwent 77 courses of the chemotherapy according to the scheme: 400 mg/m^2 Carboplatin i.v. drop-wise, once +600 mg/m^2 Cyclophosphan i.v. drop-wise, once; the courses were repeated in 28 days. Dicarbamine was prescribed daily at dose 100 mg orally after meals beginning 5 days prior to the first course and then for three weeks. Dosing duration was 26 days, course dose being 2600 mg. Dicarbamine was given again 5 days prior to the second chemotherapy course, and dosing was continued for 21 days. Total duration of Dicarbamine intake during two the chemotherapy courses was 52 days.
Hematopoiesis parameters were assessed dynamically many times before and after conducted the chemotherapy (control) as well as dynamically before and after Dicarbamine dosing in the test group. Below hematopoiesis parameters in individual patients who received the chemotherapy according to the indicated scheme with Dicarbamine or without it are presented.

[2] = tested on: stage III-IV ovarian cancer; assay: Efficacy of therapy after two chemotherapy courses; type: in vivo, human
Experimental: Efficacy of therapy was assessed in groups of patients following two courses of the chemotherapy with or without Dicarbamine according to the above described scheme. Efficacy was assessed according to the generally accepted parameters: CR—complete remission, PR—partial remission, SB—stabilization; and Progr. —progression.

[3] = with Dicarbamine, Day 0, before starting Dicarbamine
[4] = with Dicarbamine, Day 5, before starting course 1 of CT
[5] = with Dicarbamine, Day 21, after termination of Dicarbamine intake
[6] = with Dicarbamine, Day 33, before course 2 of CT
[7] = with Dicarbamine, course 2, Day 28 after course 1 of CT
[8] = with Dicarbamine, course 2, Day 33
[9] = with Dicarbamine, course 2, Day 54
[10] = with Dicarbamine, course 2, Day 61

O=C(O)CCCC(=O)NCCc1c[nH]cn1 [Dicarbamine]
Initial rate of cell proliferation (% cells/colony relative to the control) (human M-5 melanoma cells; D 0.01 μM, 48 hours): 82.4% and 84.2%
Initial rate of cell proliferation (human M-5 melanoma cells; D 0.01 μM, 72 hours): 73.6%
Initial rate of cell proliferation (human M-5 melanoma cells; D 0.01 μM, 96 hours): 70.2%
Initial rate of cell proliferation (human M-5 melanoma cells; D 1.0 μM, 48 hours): 69.0%
Initial rate of cell proliferation (human M-5 melanoma cells; D 1.0 μM, 72 hours): 50.0%
Initial rate of cell proliferation (human M-5 melanoma cells; D 1.0 μM, 96 hours): 49.1%
Initial rate of cell proliferation (human M-5 melanoma cells; IN 7.0 IU/ml + D 0.01 μM, 48 hours): 79.1%
Initial rate of cell proliferation (human M-5 melanoma cells; IN 7.0 IU/ml + D 0.01 μM, 72 hours): 49.1%
Initial rate of cell proliferation (human M-5 melanoma cells; IN 7.0 IU/ml + D 0.01 μM, 96 hours): 46.9%
Initial rate of cell proliferation (human M-5 melanoma cells; IN 7.0 IU/ml + D 1.0 μM, 48 hours): 54.7%
Initial rate of cell proliferation (human M-5 melanoma cells; IN 7.0 IU/ml + D 1.0 μM, 72 hours): 36.9%
Initial rate of cell proliferation (human M-5 melanoma cells; IN 7.0 IU/ml + D 1.0 μM, 96 hours): 33.3%
Initial rate of cell proliferation (human M-5 melanoma cells; IN 70.0 IU/ml + D 0.01 μM, 48 hours): 40.5%
Initial rate of cell proliferation (human M-5 melanoma cells; IN 70.0 IU/ml + D 0.01 μM, 72 hours): 34.9%
Initial rate of cell proliferation (human M-5 melanoma cells; IN 70.0 IU/ml + D 0.01 μM, 96 hours): 31.0% and 31.7%
Initial rate of cell proliferation (human M-5 melanoma cells; IN 70.0 IU/ml + D 1.0 μM, 48 hours): 30.7%
Initial rate of cell proliferation (human M-5 melanoma cells; IN 70.0 IU/ml + D 1.0 μM, 72 hours): 24.0% and 24.5%
Initial rate of cell proliferation (human M-5 melanoma cells; IN 70.0 IU/ml + D 1.0 μM, 96 hours): 23.9%
toxicity according to the survival index (human M-5 melanoma cells; M-5 cells): does not show toxicity
decrease of the quantity of immature tumor cells vs control (Friend erythroblastosis; Dicarbamine 4.5 mg/kg): 15-20%
increase of the quantity of lymphocytes vs control (Friend erythroblastosis; Dicarbamine 4.5 mg/kg): 4 fold
number of lymphocytes (Friend erythroblastosis; Dicarbamine + Reaferon): 18-25%
quantity of large blast type cells (Friend erythroblastosis; Dicarbamine + Reaferon): 70-80%
quantity of leukocytes (granular) (Friend erythroblastosis; Dicarbamine + Reaferon): 2-5%
quantity of granulocytes (granular leukocytes) (Friend erythroblastosis; single agent): 2-5%
quantity of lymphocytes (lymphoid cells) (Friend erythroblastosis; single agent): 18-25%
quantity of large blast type cells (Friend erythroblastosis; single agent (Dicarbamine 4.5 mg/kg p.o. or Reaferon 100 thousand IU/kg s.c., days 3-7)): 70-80%
Leukocytes ([1]; chemotherapy + Dicarbamine 100 mg daily, individual patients, course 1, Day 0, before starting Dicarbamine): 5.9 10^9/l and 7.4 10^9/l and 6.6 10^9/l
timing of the third course of CT ([1]; chemotherapy with Dicarbamine, individual patients): in time; also recorded: at term
Neutrophils [1, 3]: 4.2 10^9/l and 5.7 10^9/l and 5.0 10^9/l
Platelets [1, 3]: 170 and 174
Leukocytes [1, 4]: 5.5 10^9/l and 7.2 10^9/l and 5.9 10^9/l
Neutrophils [1, 4]: 4.0 10^9/l and 5.0 10^9/l and 4.2 10^9/l
Platelets [1, 4]: 164 and 165 and 172
Leukocytes [1, 5]: 4.7 10^9/l and 6.6 10^9/l and 5.5 10^9/l
Neutrophils [1, 5]: 3.3 10^9/l and 5.2 10^9/l and 4.4 10^9/l
Platelets [1, 5]: 160 and 162 and 166
Leukocytes [1, 6]: 4.0 10^9/l and 5.2 10^9/l and 5.0 10^9/l
Neutrophils [1, 6]: 2.9 10^9/l and 3.8 10^9/l and 3.4 10^9/l
Platelets [1, 6]: 158 and 167 and 164
Neutrophils [1, 7]: 3.2 10^9/l and 5.2 10^9/l and 3.0 10^9/l
Leukocytes ([1]; with Dicarbamine, course 2, Day 28 after course 1 of CT, before starting Dicarbamine): 4.9 10^9/l and 7.8 10^9/l and 5.6 10^9/l
Platelets [1, 7]: 180 and 165 and 170
Neutrophils [1, 8]: 3.3 10^9/l and 6.0 10^9/l and 3.2 10^9/l
Leukocytes ([1]; with Dicarbamine, course 2, Day 33, before starting course of CT): 5.0 10^9/l and 8.2 10^9/l and 5.8 10^9/l
Platelets [1, 8]: 170 and 160
Neutrophils [1, 9]: 3.1 10^9/l and 6.2 10^9/l and 3.4 10^9/l
Leukocytes ([1]; with Dicarbamine, course 2, Day 54, after termination of Dicarbamine intake): 4.2 10^9/l and 7.6 10^9/l and 5.7 10^9/l
Platelets [1, 9]: 160 and 162 and 176
Neutrophils [1, 10]: 3.0 10^9/l and 5.8 10^9/l and 3.2 10^9/l
Leukocytes ([1]; with Dicarbamine, course 2, Day 61, before course 3 of CT): 4.2 10^9/l and 7.2 10^9/l and 5.5 10^9/l
Platelets [1, 10]: 160 and 157 and 165
CR [2]: 26.6%
CR, number of patients [2]: 4
PR [2]: 46.6%
PR, number of patients [2]: 7
Progr. [2]: 13.3%
Progr., number of patients [2]: 2
SB [2]: 13.5%
SB, number of patients [2]: 2
tumor growth control (CR+PR) [2]: 73.2%
Terms of death (100 + 15 mg/kg): no
Total leukocyte number (100 + 15 mg/kg, day 0): 11.50 ± 2.80 thousand in mm^3
Total leukocyte number (100 + 15 mg/kg, day 3): 4.04 ± 0.44 thousand in mm^3
Total leukocyte number (100 + 15 mg/kg, day 5): 10.40 ± 1.59 thousand in mm^3
Total leukocyte number (100 + 15 mg/kg, day 7): 14.80 ± 1.76 thousand in mm^3
Total leukocyte number (100 + 15 mg/kg, day 21): 11.80 ± 1.34 thousand in mm^3
Terms of death (200 + 30 mg/kg): 10
Total leukocyte number (200 + 30 mg/kg, day 3): 3.10 ± 0.70 thousand in mm^3
Total leukocyte number (200 + 30 mg/kg, day 5): 12.80 ± 1.37 thousand in mm^3
Total leukocyte number (200 + 30 mg/kg, day 7): 15.30 ± 1.26 thousand in mm^3
Total leukocyte number (200 + 30 mg/kg, day 21): 12.30 ± 0.89 thousand in mm^3
Total leukocyte number (cytostatic doses 200 + 30 mg/kg (Dicarbamine group: 0.5 mg/kg daily 20 days), day 0): 11.50 ± 2.80 thousand in mm^3

From patent publication US7759313B2, “Induction method for cell differentiation” (Obschetstvo S Ogranichennoi Otvetstvennostiyu …, priority 2002, dated 2010)
